We go through 4 compounds from ChEMBL document CHEMBL5576128, “Discovery of Potent Isoquinolinequinone N-Oxides to Overcome Cancer Multidrug Resistance” (J Med Chem, 2024).

For one data set, the system named is NCI/ADR-RES. The experiment in a line: Potency index, ratio of doxorubicin GI50 to test compound GI50 for human NCI/ADR-RES cells. The format is functional.
The test system of data set [1] is NCI-H460. The experiment in a line: Inhibition of cell proliferation in human NCI-H460 cells at 50 nM incubated for 48 hrs by BrdU incorporation assay. The data set is classed as functional, cell-based.
For data set [2], the system named is NCI-H460. Nature of the data set: Inhibition of human NCI-H460 cells […] at 50 nM incubated for 48 hrs. The format is functional, cell-based.
Data set [3] has as its system NCI-H460. Nature of the data set: Effect on PARP-1 expression in human NCI-H460 cells at 0.35 to 0.7 uM incubated for 48 hrs by Western blotting analysis. The note with it: dose 0.35-0.7 µM. The data set is classed as functional, cell-based.
Data set [4] has as its system NCI-H460. Nature of the data set: Upregulation of p21 expression in human NCI-H460 cells at 0.7 uM incubated for 48 hrs by Western blotting analysis. The format is functional, cell-based.
The subject of data set [5] is NCI-H460. Nature of the data set: Effect on human NCI-H460 cells […] assessed as change in diameter at 0.35 to 0.7 uM incubated for 48 hrs. The format is functional, cell-based. The note with it: dose 0.35-0.7 µM.
Data set [6] relates to NCI-H460. The experiment in a line: Induction of DNA damage in human NCI-H460 cells at 0.7 uM incubated for 48 hrs by Western blotting analysis. The data set is classed as functional, cell-based.
For data set [7], the system named is NCI-H460. The experiment in a line: Upregulation of p-histone H2A.X expression in human NCI-H460 cells at high concentration incubated for 48 hrs by Western blotting analysis. The format is functional, cell-based. (In general: Immunoblotting shows a protein as a band on a membrane.)
In data set [8] the test system is Doxorubicin-resistant NCI-H460/R. Nature of the data set: Effect on human Doxorubicin-resistant NCI-H460/R cells […] assessed as change in circularity at 0.35 to 0.7 uM incubated for 48 hrs. The data set is classed as functional, cell-based. The note with it: dose 0.35-0.7 µM.
The subject of data set [9] is NCI-H460. The experiment in a line: Induction of cell cycle arrest in human NCI-H460 cells assessed as decrease in S phase cells at 0.35 to 0.7 uM incubated for 48 hrs by propidium iodide staining based flow cytometry analysis. The data set is classed as functional. The note with it: dose 0.35-0.7 µM. In general terms: In flow cytometry, cells or beads pass a laser one at a time.

For a further data set, the system named is MRC5. The experiment in a line: Cytotoxicity against human MRC5 cells at less than 0.5 uM incubated for 48 hrs by SRB method. The format is toxicity, cell-based. To be noted: mrc5, 48 h. A general note: Sulforhodamine B stains cellular protein and so reports cell mass.
For data set [10], the system named is Doxorubicin-resistant NCI-H460/R. The experiment in a line: Effect on human Doxorubicin-resistant NCI-H460/R cells […] assessed as change in diameter at 0.35 to 0.7 uM incubated for 48 hrs. The format is functional, cell-based. To be noted: dose 0.35-0.7 µM.
Data set [11] shares this test system. The experiment in a line: Inhibition of human Doxorubicin-resistant NCI-H460/R cells spheroid viability by CellTiter-Glo 3D viability assay. The format is functional, cell-based.
Data set [12] relates to NCI-H460. Nature of the data set: Inhibition of cell proliferation in human NCI-H460 cells at 0.35 to 0.7 uM incubated for 48 hrs by BrdU incorporation assay. To be noted: dose 0.35-0.7 µM. The data set is classed as functional, cell-based.
Data set [13] concerns NCI-H460. The experiment in a line: Effect on LC3-I expression in human NCI-H460 cells at 0.35 to 0.7 uM incubated for 48 hrs by Western blotting analysis. The data set is classed as functional, cell-based. The note with it: dose 0.35-0.7 µM.
The subject of data set [14] is NCI-H460. Nature of the data set: Effect on human NCI-H460 cells […] assessed as change in compactness at 0.35 to 0.7 uM incubated for 48 hrs. The data set is classed as functional, cell-based. To be noted: dose 0.35-0.7 µM.
Data set [15] has as its system DLD-1. The experiment in a line: Inhibition of human DLD-1 cells spheroid viability by CellTiter-Glo 3D viability assay. The data set is classed as functional, cell-based.
Data set [16] concerns NCI-H460. The experiment in a line: Inhibition of human NCI-H460 cells spheroid viability by CellTiter-Glo 3D viability assay. The format is functional, cell-based.
Data set [17] relates to NCI-H460. The experiment in a line: Effect on human NCI-H460 cells […] assessed as change in circularity at 0.35 to 0.7 uM incubated for 48 hrs. The data set is classed as functional, cell-based. To be noted: dose 0.35-0.7 µM.
In data set [18] the test system is NCI-H460. Nature of the data set: Induction of cell cycle arrest in human NCI-H460 cells assessed as increase in G1 phase cells at 0.35 to 0.7 uM incubated for 48 hrs by propidium iodide staining based flow cytometry analysis. The data set is classed as functional. The note with it: dose 0.35-0.7 µM.
For the next data set, the system named is MCF-12A. Nature of the data set: Cytotoxicity against human MCF-12A cells at 1 to 5 uM incubated for 48 hrs by SRB method. The format is toxicity, cell-based. To be noted: dose 1-5 µM.
The subject of data set [19] is Paclitaxel-resistant DLD1-TxR cells. The experiment in a line: Effect on human Paclitaxel-resistant DLD1-TxR cells […] assessed as change in diameter at 0.35 to 0.7 uM incubated for 48 hrs. The format is functional, cell-based. The note with it: dose 0.35-0.7 µM.
For data set [20] the test system is unchanged. Nature of the data set: Effect on human Paclitaxel-resistant DLD1-TxR cells […] assessed as change in circularity at 0.35 to 0.7 uM incubated for 48 hrs. The format is functional, cell-based. The note with it: dose 0.35-0.7 µM.
For data set [21], the system named is DLD-1. Nature of the data set: Effect on human DLD-1 cells […] assessed as change in circularity at 0.35 to 0.7 uM incubated for 48 hrs. The data set is classed as functional, cell-based. The note with it: dose 0.35-0.7 µM.
Data set [22] has as its system DLD-1. Nature of the data set: Effect on human DLD-1 cells […] assessed as change in diameter at 0.35 to 0.7 uM incubated for 48 hrs. The note with it: dose 0.35-0.7 µM. The data set is classed as functional, cell-based.
The subject of data set [23] is NCI-H460. The experiment in a line: Inhibition of cell growth in human NCI-H460 cells incubated for 48 hrs by trypan blue exclusion assay. The data set is classed as functional, cell-based.
Data set [24] has as its system NCI-H460. Nature of the data set: Upregulation of TP53BP1 expression in human NCI-H460 cells at high concentration incubated for 48 hrs by Western blotting analysis. The format is functional, cell-based.
In data set [25] the target is ATP-dependent translocase ABCB1 (Homo sapiens, UniProt P08183). Nature of the data set: Inhibition of P-gp mediated drug efflux in human NCI-H460 cells assessed as accumulation of rhodamine-123 accumulation at 10 to 20 uM incubated for 1 hr by flow cytometry analysis. The format is cell-based. To be noted: nci-h460, 1 h, dose 10-20 µM.
Chain of ATP-dependent translocase ABCB1 (P08183 whole entry): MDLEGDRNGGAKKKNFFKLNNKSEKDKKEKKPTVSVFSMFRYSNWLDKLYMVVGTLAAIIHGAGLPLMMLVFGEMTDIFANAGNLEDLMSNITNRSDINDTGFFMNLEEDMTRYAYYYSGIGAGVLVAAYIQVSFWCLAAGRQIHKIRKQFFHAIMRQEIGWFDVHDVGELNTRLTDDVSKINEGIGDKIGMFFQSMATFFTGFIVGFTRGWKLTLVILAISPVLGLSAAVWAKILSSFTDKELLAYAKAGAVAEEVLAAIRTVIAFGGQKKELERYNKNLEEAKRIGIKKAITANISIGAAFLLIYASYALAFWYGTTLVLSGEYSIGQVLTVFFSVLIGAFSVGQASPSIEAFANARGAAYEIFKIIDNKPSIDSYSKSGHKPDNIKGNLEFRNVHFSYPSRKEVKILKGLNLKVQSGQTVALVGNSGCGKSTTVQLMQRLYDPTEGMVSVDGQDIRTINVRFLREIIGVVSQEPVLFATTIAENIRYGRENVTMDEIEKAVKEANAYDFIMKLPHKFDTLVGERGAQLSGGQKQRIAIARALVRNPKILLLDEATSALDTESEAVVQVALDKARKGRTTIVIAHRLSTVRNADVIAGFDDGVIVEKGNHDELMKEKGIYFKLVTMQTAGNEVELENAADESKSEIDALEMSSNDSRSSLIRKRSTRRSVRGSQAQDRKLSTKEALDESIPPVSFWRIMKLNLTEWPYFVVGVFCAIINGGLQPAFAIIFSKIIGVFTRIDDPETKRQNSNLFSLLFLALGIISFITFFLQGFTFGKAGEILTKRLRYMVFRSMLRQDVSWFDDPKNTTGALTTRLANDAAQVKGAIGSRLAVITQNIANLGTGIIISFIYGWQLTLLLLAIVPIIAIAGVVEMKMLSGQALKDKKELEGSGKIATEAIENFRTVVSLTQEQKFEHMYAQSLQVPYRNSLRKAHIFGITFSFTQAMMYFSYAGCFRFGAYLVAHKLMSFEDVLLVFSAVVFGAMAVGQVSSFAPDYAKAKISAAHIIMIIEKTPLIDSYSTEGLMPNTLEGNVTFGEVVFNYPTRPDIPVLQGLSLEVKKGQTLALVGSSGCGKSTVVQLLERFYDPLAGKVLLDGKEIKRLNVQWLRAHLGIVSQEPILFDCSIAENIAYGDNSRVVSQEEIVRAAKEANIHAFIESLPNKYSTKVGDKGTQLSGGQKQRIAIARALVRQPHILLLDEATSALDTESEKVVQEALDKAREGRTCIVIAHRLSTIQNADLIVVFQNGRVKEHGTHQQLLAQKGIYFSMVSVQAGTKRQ
The test system of data set [26] is DLD-1. The experiment in a line: Effect on human DLD-1 cells […] assessed as change in compactness at 0.35 to 0.7 uM incubated for 48 hrs. The data set is classed as functional, cell-based. To be noted: dose 0.35-0.7 µM.
Data set [27] has as its system NCI-H460. Nature of the data set: Upregulation of p53 expression in human NCI-H460 cells at 0.35 to 0.7 uM incubated for 48 hrs by Western blotting analysis. The data set is classed as functional, cell-based. To be noted: dose 0.35-0.7 µM.
In data set [28] the test system is NCI-H460. The experiment in a line: Downregulation of procaspase-3 expression in human NCI-H460 cells at 0.35 to 0.7 uM incubated for 48 hrs by Western blotting analysis. The data set is classed as functional, cell-based. The note with it: dose 0.35-0.7 µM.
In data set [29] the test system is Doxorubicin-resistant NCI-H460/R. The experiment in a line: Effect on human Doxorubicin-resistant NCI-H460/R cells […] assessed as change in compactness at 0.35 to 0.7 uM incubated for 48 hrs. The data set is classed as functional, cell-based. To be noted: dose 0.35-0.7 µM.
Data set [30] relates to NCI-H460. Nature of the data set: Induction of apoptosis in human NCI-H460 cells at 0.35 to 0.7 uM incubated for 48 hrs by Annexin-V FITC/propidium iodide staining based flow cytometry analysis. The format is functional, cell-based. To be noted: dose 0.35-0.7 µM.
For data set [31], the system named is NCI-H460. The experiment in a line: Upregulation of cyclin D1 expression in human NCI-H460 cells at 0.35 to 0.7 uM incubated for 48 hrs by Western blotting analysis. The format is functional, cell-based. To be noted: dose 0.35-0.7 µM.
Data set [32] relates to NCI-H460. Nature of the data set: Induction of cell cycle arrest in human NCI-H460 cells assessed as increase in sub-G1 phase cells at 0.35 to 0.7 uM incubated for 48 hrs by propidium iodide staining based flow cytometry analysis. The format is functional. To be noted: dose 0.35-0.7 µM.
The subject of data set [33] is NCI-H460. Nature of the data set: Induction of ROS accumulation in human NCI-H460 cells at 0.7 to 5 uM incubated for 6 hrs by CM-H2DCFDA staining based flow cytometry analysis. To be noted: dose 0.7-5 µM. The format is functional, cell-based.
Data set [34] deals with Paclitaxel-resistant DLD1-TxR cells. Nature of the data set: Inhibition of human Paclitaxel-resistant DLD1-TxR cells spheroid viability by CellTiter-Glo 3D viability assay. The format is functional, cell-based.
Data set [35] shares this test system. Nature of the data set: Effect on human Paclitaxel-resistant DLD1-TxR cells […] assessed as change in compactness at 0.35 to 0.7 uM incubated for 48 hrs. The format is functional, cell-based. To be noted: dose 0.35-0.7 µM.
The test system of data set [36] is NCI-H460. The experiment in a line: Effect on LC3-II expression in human NCI-H460 cells at 0.35 to 0.7 uM incubated for 48 hrs by Western blotting analysis. The data set is classed as functional, cell-based. To be noted: dose 0.35-0.7 µM.
Data set [37] concerns NCI-H460. The experiment in a line: Effect on p62 expression in human NCI-H460 cells at 0.35 to 0.7 uM incubated for 48 hrs by Western blotting analysis. The format is functional, cell-based. The note with it: dose 0.35-0.7 µM.
The subject of data set [38] is Doxorubicin-resistant NCI-H460/R. Nature of the data set: Inhibition of human Doxorubicin-resistant NCI-H460/R cells […] assessed as reduction in viability at 2 uM incubated for 48 hrs. The format is functional, cell-based.

Calls of active or inactive are those of the source. The calls are words filed in the database; no cut-off is given here.

On to `COC(=O)c1c2c(c(C)[n+]([O-])c1C)C(=O)C=C(NCc1ccccc1)C2=O`, for which the RatioGI50 with NCI/ADR-RES is recorded as 40.

For `COc1cccc2c1C(=O)c1c(O)c3c(c(O)c1C2=O)C[C@@](O)(C(=O)CO)C[C@@H]3O[C@H]1C[C@H](N)[C@H](O)[C@H](C)O1`, the inhibition entry with NCI-H460 [1] is “Active”. In addition, the inhibition entry in the data set on NCI-H460 [2] is “inactive”.

In the case of `COC(=O)c1c2c(c[n+]([O-])c1C)C(=O)C=C(NCc1ccccc1)C2=O`, the outcome (in the data set on NCI-H460 [3]; in the data set on NCI-H460 [5]; with NCI-H460 [6]; in data set [8]; in [10]; in the data set with NCI-H460 [13]) was inactive. In addition, the result (in the data set on NCI-H460 [14]; in the data set on NCI-H460 [17]; in data set [19]; in [20]; in the data set on DLD-1 [21]; in the data set on DLD-1 [22]) was inactive. Besides, the result (with DLD-1 [26]; with NCI-H460 [27]; in data set [29]; in the data set on NCI-H460 [30]; in data set [35]; in the data set with NCI-H460 [36]) was inactive. Further, the result in the data set with NCI-H460 [37] was inactive. Further, the result in the data set on NCI-H460 [4], in the data set with NCI-H460 [7], in the data set with NCI-H460 [9], in the data set with NCI-H460 [18], in the data set with NCI-H460 [24] and in the data set with NCI-H460 [28] was Active. For the same compound, the result with NCI-H460 [31], in the data set on NCI-H460 [32] and in the data set on NCI-H460 [33] was Active. Besides, the Activity result with MRC5 and with MCF-12A was “Non-Toxic” each time. Further, the inhibition entry (in data set [11]; in the data set on NCI-H460 [12]; with DLD-1 [15]; in the data set on NCI-H460 [16]; with NCI-H460 [23]; in data set [34]) was “Active” throughout. Further, the “inhibition (INH)” value in [25] is “Active”.

Consider `COc1cc([C@@H]2c3cc4c(cc3[C@@H](O[C@@H]3O[C@@H]5CO[C@@H](C)O[C@H]5[C@H](O)[C@H]3O)[C@H]3COC(=O)[C@H]23)OCO4)cc(OC)c1O`, for which the outcome in data set [38] was inactive.
